#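 Compound exposure: 48 hours, 5 concentrations, 96-well plates. GI50 marks 50% less growth.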 The source made the active and inactive calls. Cut-off read from the data, not from the text of the source: active = GI50 up to about 1.1 µM and inactive = higher.
# Legend:
# Assay in all cases: NCI-60 cell line screen, 48 h
# [1] = test system: MDA-N
# [2] = test system: HOP-92
# [3] = test system: HCT-15
# [4] = test system: NCI/ADR-RES
# [5] = test system: EKVX
# [6] = test system: TK-10
# [7] = test system: HT-29
# [8] = test system: OVCAR-5
# [9] = test system: OVCAR-3
# [10] = test system: SF-539
# [11] = test system: Hs-578T
# [12] = test system: IGROV-1
# [13] = test system: MDA-MB-231
# [14] = test system: NCI-H460
# [15] = test system: SN12C
# [16] = test system: OVCAR-4
# [17] = test system: HOP-62
# [18] = test system: RXF 393
# [19] = test system: SF-268
# [20] = test system: CCRF-CEM
SMILES,GI50 [1],GI50 [2],GI50 [3],GI50 [4],GI50 [5],GI50 [6],GI50 [7],GI50 [8],GI50 [9],GI50 [10],GI50 [11],GI50 [12],GI50 [13],GI50 [14],GI50 [15],GI50 [16],GI50 [17],GI50 [18],GI50 [19],GI50 [20]
C[As+](C)(c1ccc(Br)c([N+](=O)[O-])c1)c1ccc(Br)c([N+](=O)[O-])c1,> 100 µM (inactive),> 100 µM (inactive),> 100 µM,> 100 µM (inactive),> 100 µM (inactive),> 100 µM (inactive),> 100 µM (inactive),> 100 µM (inactive),> 100 µM (inactive),> 100 µM (inactive),> 100 µM (inactive),> 100 µM (inactive),> 100 µM (inactive),> 100 µM (inactive),> 100 µM (inactive),> 100 µM (inactive),> 100 µM (inactive),> 100 µM (inactive),> 100 µM (inactive),
COC(=O)c1c(C)cccc1C1CN=NC12Cc1ccccc1C2=O (stereo not drawn),> 100 µM (inactive),> 57.7 µM (inactive),78.3 µM,35.1 µM (inactive),> 93.5 µM (inactive),> 100 µM (inactive),> 100 µM (inactive),> 100 µM (inactive),15.7 µM (inactive),> 100 µM (inactive),96.2 µM (inactive),> 91.2 µM (inactive),45.7 µM (inactive),> 75.9 µM (inactive),> 100 µM (inactive),> 92.3 µM (inactive),> 100 µM (inactive),> 100 µM (inactive),> 53 µM (inactive),38.6 µM (inactive)
c1ccc(COc2ncccc2C2SCCCS2)cc1,> 100 µM (inactive),> 100 µM (inactive),> 100 µM,> 100 µM (inactive),> 100 µM (inactive),> 100 µM (inactive),,> 100 µM (inactive),> 100 µM (inactive),67.3 µM (inactive),> 100 µM (inactive),> 100 µM (inactive),> 100 µM (inactive),,> 100 µM (inactive),> 100 µM (inactive),> 100 µM (inactive),66.8 µM (inactive),> 100 µM (inactive),> 100 µM (inactive)
CC1OC(OC2C(CO)OC(O[C@H]3CC[C@@]4(C)C(=CC[C@H]5[C@@H]6C[C@@H]7O[C@](O)(CC[C@H](C)COC8OC(CO)C(O)C(O)C8O)[C@@H](C)[C@@H]7[C@@]6(C)CC[C@@H]54)C3)C(OC3OC(C)C(O)C(O)C3O)C2O)C(O)C(O)C1O (stereo partly drawn),3.4 µM (inactive),3.56 µM (inactive),2.75 µM,4.4 µM (inactive),17.1 µM (inactive),> 73.3 µM (inactive),11.9 µM (inactive),10.8 µM (inactive),8.2 µM (inactive),2.82 µM (inactive),2.63 µM (inactive),5.75 µM (inactive),8.55 µM (inactive),4.81 µM (inactive),10 µM (inactive),7.96 µM (inactive),2.18 µM (inactive),5.11 µM (inactive),3.36 µM (inactive),1.42 µM (inactive)
CCOC(=O)c1c(N2CCOCC2)[nH]c(=O)c(C(c2c(O)c(C(=O)OCC)c(N3CCOCC3)[nH]c2=O)C(C)C)c1O,> 100 µM (inactive),80.5 µM (inactive),> 100 µM,> 100 µM (inactive),> 100 µM (inactive),> 100 µM (inactive),> 100 µM (inactive),73.8 µM (inactive),> 100 µM (inactive),> 100 µM (inactive),47.9 µM (inactive),,> 100 µM (inactive),> 100 µM (inactive),> 100 µM (inactive),> 100 µM (inactive),60.4 µM (inactive),> 100 µM (inactive),> 100 µM (inactive),> 100 µM (inactive)
COc1ccccc1Nc1nc(N)nc(N)c1N=O,> 100 µM (inactive),> 100 µM (inactive),> 100 µM,> 100 µM (inactive),> 100 µM (inactive),> 100 µM (inactive),78.2 µM (inactive),> 100 µM (inactive),,> 100 µM (inactive),> 100 µM (inactive),3.91 µM (inactive),> 100 µM (inactive),> 100 µM (inactive),> 100 µM (inactive),> 100 µM (inactive),> 100 µM (inactive),> 100 µM (inactive),> 100 µM (inactive),> 100 µM (inactive)
NCCCN(CCCN)CCc1cn(C(=O)c2ccccc2)cn1,9.1 µM (inactive),4.05 µM (inactive),7.78 µM,14.4 µM (inactive),7.21 µM (inactive),5.33 µM (inactive),11.9 µM (inactive),16.2 µM (inactive),2.69 µM (inactive),13.2 µM (inactive),11.4 µM (inactive),4.19 µM (inactive),14.2 µM (inactive),15.7 µM (inactive),6.41 µM (inactive),4.93 µM (inactive),7.74 µM (inactive),2.97 µM (inactive),7.8 µM (inactive),2.17 µM (inactive)
CC(CCCCNC(=O)OC(C)(C)C)NC(=O)NC(C)CCCCNC(=O)OC(C)(C)C (stereo not drawn),72.6 µM (inactive),> 100 µM (inactive),> 100 µM,> 100 µM (inactive),> 100 µM (inactive),31.3 µM (inactive),> 100 µM (inactive),> 100 µM (inactive),57 µM (inactive),,> 100 µM (inactive),> 100 µM (inactive),> 100 µM (inactive),> 100 µM (inactive),> 100 µM (inactive),81.5 µM (inactive),> 100 µM (inactive),> 100 µM (inactive),> 100 µM (inactive),6.21 µM (inactive)
Cn1nc2n(c1=O)CCCN2,> 100 µM (inactive),> 100 µM (inactive),> 100 µM,> 100 µM (inactive),> 100 µM (inactive),> 100 µM (inactive),> 100 µM (inactive),> 100 µM (inactive),> 100 µM (inactive),> 100 µM (inactive),> 100 µM (inactive),> 100 µM (inactive),> 100 µM (inactive),> 100 µM (inactive),> 100 µM (inactive),> 100 µM (inactive),> 100 µM (inactive),> 100 µM (inactive),> 100 µM (inactive),> 100 µM (inactive)
c1ccc(/N=c2/sc3ccccc3s/c2=N/c2ccccc2)cc1,1.61 µM (inactive),2 µM (inactive),1.75 µM,2.67 µM (inactive),2.76 µM (inactive),4.08 µM (inactive),2.08 µM (inactive),2.11 µM (inactive),,1.88 µM (inactive),2.68 µM (inactive),1.62 µM (inactive),2.21 µM (inactive),1.96 µM (inactive),1.75 µM (inactive),2.02 µM (inactive),4.45 µM (inactive),1.82 µM (inactive),3.12 µM (inactive),> 100 µM (inactive)
